From the supplement of paper PMC12592484

How the values were obtained:
Test in all cases: drug sensitivity score (DSS2, normalised partial AUC of dose-response, 72 h CellTiter-Glo viability) (DSS (dimensionless)); higher = more sensitive (stronger growth inhibition / cytotoxicity); extreme values may be limits of the assay
CAF#3 = test system: CAF#3 (primary prostate cancer-associated fibroblasts of myCAF-like type)
Method in brief: (§1)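 Five doses spanning a 10,000-fold range were pre-dispensed into 384-well plates, into which low-passage primary prostate cancer-associated fibroblasts, PF179T, WPMY-1, LNCaP and 22Rv1 cells were seeded. After 72 h, CellTiter-Glo 2.0 luminescence measured viability, scaled to vehicle and positive-control wells. Higher values of the drug sensitivity score, a BREEZE-computed partial area under the fitted logistic dose–response curve divided by the log of the upper asymptote, mean greater sensitivity.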

CAF#1 = test system: CAF#1 (primary prostate cancer-associated fibroblasts of myCAF-like type)
Method in brief: as §1

CAF#4 = test system: CAF#4 (primary prostate cancer-associated fibroblasts of iCAF-like type)
Method in brief: as §1

CAF#7 = test system: CAF#7 (primary prostate cancer-associated fibroblasts of myCAF-like type)
Method in brief: as §1

CAF#2 = test system: CAF#2 (primary prostate cancer-associated fibroblasts of iCAF-like type)
Method in brief: as §1

22Rv1 = test system: 22Rv1
Method in brief: as §1

LNCAP = test system: LNCAP
Method in brief: as §1

CAF#5 = test system: CAF#5 (primary prostate cancer-associated fibroblasts of myCAF-like type)
Method in brief: as §1

WPMY-1 = test system: WPMY-1
Method in brief: as §1

CAF#6 = test system: CAF#6 (primary prostate cancer-associated fibroblasts of iCAF-like type)
Method in brief: as §1

PF179T = test system: PF179T
Method in brief: as §1

| Compound | drug sensitivity score (CAF#3) | drug sensitivity score (CAF#1) | drug sensitivity score (CAF#4) | drug sensitivity score (CAF#7) | drug sensitivity score (CAF#2) | drug sensitivity score (22Rv1) | drug sensitivity score (LNCAP) | drug sensitivity score (CAF#5) | drug sensitivity score (WPMY-1) | drug sensitivity score (CAF#6) | drug sensitivity score (PF179T) |
| --- | --- | --- | --- | --- | --- | --- | --- | --- | --- | --- | --- |
| CC1(C)NC(=O)N(c2ccc([N+](=O)[O-])c(C(F)(F)F)c2)C1=O [Nilutamide] (tested concentration range 1-10000 nM) | 0 | 0.1 | 2.7 | 0 | 0.1 | 0 | 2.9 | 0 | 0 | 0 | 0 |
| COC(=O)c1ccc2c(c1)NC(=O)/C2=C(\Nc1ccc(N(C)C(=O)CN2CCN(C)CC2)cc1)c1ccccc1 [Nintedanib] (tested concentration range 1-10000 nM) | 9.3 | 5.4 | 7 | 10.5 | 8.6 | 8.4 | 9.2 | 5.5 | 5.7 | 7.7 | 0 |
| NC(=O)c1cccc2cn(-c3ccc([C@@H]4CCCNC4)cc3)nc12 [Niraparib] (tested concentration range 1-10000 nM) | 3.2 | 1.5 | 2.5 | 3.7 | 3.9 | 7.5 | 5.5 | 1.7 | 4.4 | 1.1 | 5.8 |
| Cc1ccccc1CN1C(=O)C2=C(CCN(Cc3ccccc3)C2)N2CCN=C12 [ONC201] (tested concentration range 2.5-25000 nM) | 2.3 | 3.6 | 3.4 | 3.8 | 6.2 | 13.9 | 9.3 | 3.1 | 6.9 | 4.1 | 3.1 |
| O=C(c1cc(Cc2n[nH]c(=O)c3ccccc23)ccc1F)N1CCN(C(=O)C2CC2)CC1 [Olaparib] (tested concentration range 1-10000 nM) | 3 | 3.8 | 6.8 | 4.1 | 4.7 | 5.8 | 4.4 | 4.5 | 4.5 | 3.5 | 6.4 |
| COC(=O)C[C@](O)(CCCC(C)(C)O)C(=O)O[C@@H]1C(OC)=C[C@]23CCCN2CCc2cc4c(cc2[C@H]13)OCO4 [Omacetaxine] (tested concentration range 1-10000 nM) | 20.6 | 19.1 | 15.3 | 21.4 | 21.9 | 35 | 29.2 | 18.7 | 25.2 | 20 | 22 |
| CC1(C)CC[C@]2(NC(=O)C(C)(F)F)CC[C@]3(C)[C@H](C(=O)C=C4[C@@]5(C)C=C(C#N)C(=O)C(C)(C)[C@@H]5CC[C@]43C)[C@@H]2C1 [Omaveloxolone] (tested concentration range 1-10000 nM) | 4.6 | 19.8 | 17 | 4.8 | 23.2 | 14.4 | 23.9 | 18.5 | 18.4 | 5.3 | 14.8 |
| CC(C)c1cc(C(=O)N2Cc3ccc(CN4CCN(C)CC4)cc3C2)c(O)cc1O [Onalespib] (tested concentration range 0.2-2500 nM) | 11.8 | 10 | 7.8 | 11.2 | 12.1 | 18 | 18.2 | 8.6 | 21.1 | 10.5 | 11.6 |
| O=C(NCc1ccncc1)C12CC3CC(C1)CC(c1ccc(Cl)cc1)(C3)C2 [Opaganib] (tested concentration range 5-50000 nM) | 1.2 | 2.7 | 4.1 | 0.4 | 4.4 | 5.9 | 8.6 | 0.7 | 6.8 | 0.7 | 3.8 |
| COC[C@H](NC(=O)c1cnc(C)s1)C(=O)N[C@@H](COC)C(=O)N[C@@H](Cc1ccccc1)C(=O)[C@@]1(C)CO1 [Oprozomib] (tested concentration range 0.2-2500 nM) | 10.3 | 14 | 11.4 | 9.7 | 16 | 20.7 | 20.8 | 13.1 | 25.7 | 10.5 | 14.6 |
| C=CC(=O)Nc1cc(Nc2nccc(-c3cn(C)c4ccccc34)n2)c(OC)cc1N(C)CCN(C)C [Osimertinib] (tested concentration range 0.2-2500 nM) | 5.4 | 3.4 | 3.7 | 4.2 | 5 | 5.9 | 6.4 | 4.8 | 4.6 | 3 | 1.9 |
| O=C(O)C(=O)O.[NH-][C@@H]1CCCC[C@H]1[NH-].[Pt+2] [Oxaliplatin] (tested concentration range 10-100000 nM) | 8.3 | 9.7 | 9.1 | 7.4 | 10.6 | 13.8 | 26.1 | 9.4 | 9 | 7.3 | 8.8 |
| C=CCc1cccc(/C=N/NC(=O)CN2CCN(Cc3ccccc3)CC2)c1O [PAC-1] (tested concentration range 1-10000 nM) | 1.9 | 0.3 | 0.2 | 2 | 3.6 | 4.4 | 3.9 | 1.5 | 6.9 | 1.9 | 3.9 |
| O=C(Nc1cccnc1)N1CCC(Cc2cccc(Oc3ccc(C(F)(F)F)cn3)c2)CC1 [PF-3845] (tested concentration range 1-10000 nM) | 0.2 | 0 | 0 | 0 | 0 | 2.3 | 3.3 | 0 | 4.6 | 0 | 3 |
| COc1ccccc1S(=O)(=O)Nc1ccc2c(c1)CN(C)C(=O)N2 [PFI-1] (tested concentration range 3-30000 nM) | 4.3 | 3.1 | 1.3 | 3.4 | 2.1 | 6.6 | 6.4 | 1 | 4.2 | 1.8 | 2.6 |
| CN1CCN(c2cc(C(=O)Nc3ccc4c(c3)-c3c(c(C(N)=O)nn3-c3ccc(F)cc3)CC4)c(Cl)cn2)CC1 [PHA 408] (tested concentration range 1-10000 nM) | 2.9 | 7.2 | 4.2 | 3.7 | 7 | 6.1 | 7.4 | 5.9 | 4.6 | 1.2 | 1.4 |
| O=C(Nc1cc(Cl)cc2c1[nH]c1cnccc12)c1cccnc1 [PS-1145] (tested concentration range 2.5-25000 nM) | 1.3 | 3.1 | 0 | 0 | 4.1 | 0 | 0 | 2.5 | 0.1 | 0.1 | 3.5 |
| CC(=O)O[C@H]1C(=O)[C@@]2(C)[C@H]([C@H](OC(=O)c3ccccc3)[C@]3(O)C[C@H](OC(=O)[C@H](O)[C@@H](NC(=O)c4ccccc4)c4ccccc4)C(C)=C1C3(C)C)[C@]1(OC(C)=O)CO[C@@H]1C[C@@H]2O [Paclitaxel] (tested concentration range 0.1-1000 nM) | 10.8 | 14.8 | 8.8 | 24.2 | 16.8 | 22.4 | 31.3 | 15.4 | 26.4 | 15.3 | 18.2 |
| C1=N/C2=N/c3ccc(OCCN4CCCC4)c(c3)COC/C=C/COCc3cccc(c3)C(=C1)N2 [Pacritinib] (tested concentration range 1-10000 nM) | 9.4 | 6.7 | 6.1 | 8.1 | 7.8 | 8.6 | 8.4 | 7.3 | 10.5 | 8.2 | 4.5 |
| CC(=O)c1c(C)c2cnc(Nc3ccc(N4CCNCC4)cn3)nc2n(C2CCCC2)c1=O [Palbociclib] (tested concentration range 1-10000 nM) | 0 | 2.5 | 3.3 | 2 | 7.4 | 7.9 | 7.7 | 4.9 | 2.1 | 1.4 | 5.1 |
| Cc1[nH]c2ccccc2c1CCNCc1ccc(/C=C/C(=O)NO)cc1 [Panobinostat] (tested concentration range 0.1-1000 nM) | 7.7 | 11.3 | 8 | 7.9 | 11.4 | 23.2 | 23.1 | 10.4 | 22.9 | 9.3 | 10.9 |
| Cc1ccc(Nc2nccc(N(C)c3ccc4c(C)n(C)nc4c3)n2)cc1S(N)(=O)=O [Pazopanib] (tested concentration range 1-10000 nM) | 4 | 3.6 | 5.4 | 5.1 | 6.7 | 0 | 4.1 | 3.7 | 0.2 | 1.1 | 5 |
| Nc1nc2[nH]cc(CCc3ccc(C(=O)N[C@@H](CCC(=O)O)C(=O)O)cc3)c2c(=O)[nH]1 [Pemetrexed] (tested concentration range 1-10000 nM) | 0.5 | 1.2 | 0 | 0 | 0 | 0 | 9.4 | 0 | 13.5 | 0 | 0.1 |
